Read-outs that look alike come from different tables or passages of the source.
Tested on: 407 cancer cell lines
Experiment: Cell viability of cancer cell lines (IC50), CellTiter-Glo Viability Assay, 96 h
Assay type: cell-based
Details: for IC50: read-out: Absolute IC50
Protocol: Viability was determined by using the 50% inhibitory concentration (IC50) as determined with the CellTiter-Glo® Viability Assay (Promega).
Experiments were initiated by first thawing and equilibrating the CellTiter-Glo® Buffer to room temperature. The lyophilized CellTiter-Glo® Substrate was also equilibrated to room temperature. The lyophilized substrate was reconstituted with the CellTiter-Glo® buffer to form the CellTiter-Glo® Reagent.
Cells were harvested during the logarithmic growth period, counted, and the cell concentration adjusted to 4.44×10^4 cells/mL using culture medium.
Cells were allowed to grow overnight and the following day, the TO reading was obtained by adding 10 μL culture medium to each well of Plate A. The plate was allowed to equilibrate at room temperature for thirty minutes, after which 50 μL CellTiter-Glo® reagent was added to each well. The contents were mixed for 5 min on an orbital shaker to induce cell lysis. Plates were incubated for 20 minutes to stabilize the luminescent signal and the TO luminescence recorded.
Test plate B was incubated for 96 h in the humidified incubator at 37° C. with 5% CO2.
Following the incubation, the plate was equilibrated at room temperature for thirty minutes. CellTiter-Glo® (50 μL) was added to each well of the plate and contents mixed for five minutes on an orbital shaker to induce cell lysis. The luminescent signal was allowed to stabilize at room temperature for 20 minutes and the luminescence recorded.
IC50 (EC50) was calculated using a dose-response curve, fitted using a nonlinear regression model with a sigmoidal dose response. Survival rate was calculated using the formula:
The Surviving rate (%)=(LumTest article−LumMedium control)/(LumNon-treated−LumMedium control)×100%.
Absolute IC50 (EC50) was calculated according to the dose-response curve generated by the statistical software (GraphPad Prism 5.0).

## Cc1nn(-c2nc(-c3ccc(C(F)(F)F)cc3)c(SC(C)C)s2)c(C(=O)O)c1-c1cccc(F)c1 [Compound A197, 4-(3-fluorophenyl)-1-(5-(isopropylthio)-4-(4-(trifluoromethyl)phenyl)thiazol-2-yl)-3-methyl-1H-pyrazole-5-carboxylic acid]
22Rv1 cells, 96 h
  % inhibition at top conc.: 68.15%
5637 cells, 96 h
  % inhibition at top conc.: 68.06%
96 h, 5637 cells, 96 h
  IC50: 490 nM
96 h, A3/KAW cells, 96 h
  IC50: 290 nM
96 h, ASH-3 cells, 96 h
  IC50: > 30000 nM
96 h, C4-2, 96 h
  IC50: > 30000 nM
96 h, CCK-81 cells, 96 h
  IC50: 320 nM
96 h, COV644 cells, 96 h
  IC50: > 30000 nM
96 h, H4 cells, 96 h
  IC50: 730 nM
96 h, HCC 94 cells, 96 h
  IC50: 820 nM
96 h, HM-7, 96 h
  IC50: > 30000 nM
96 h, IHH-4 cells, 96 h
  IC50: 900 nM
96 h, IM95m cells, 96 h
  IC50: 780 nM
96 h, JHH-5 cells, 96 h
  IC50: > 30000 nM
96 h, M059K cells, 96 h
  IC50: 1660 nM
96 h, MC/CAR cells, 96 h
  IC50: 3280 nM
96 h, NAMALWA cells, 96 h
  IC50: 510 nM
96 h, OCUM-2D cells, 96 h
  IC50: 1150 nM
96 h, OCUM-2M cells, 96 h
  IC50: 830 nM
96 h, RBE cells, 96 h
  IC50: 840 nM
96 h, SCH cells, 96 h
  IC50: > 30000 nM
96 h, SNU-719 cells, 96 h
  IC50: > 30000 nM
96 h, SNU-761 cells, 96 h
  IC50: 1110 nM
96 h, SNU-2535 cells, 96 h
  IC50: 750 nM
96 h, SNU-C5 cells, 96 h
  IC50: > 30000 nM
96 h, SW 156 cells, 96 h
  IC50: 2390 nM
96 h, T.Tn cells, 96 h
  IC50: 840 nM
96 h, TJ905 cells, 96 h
  IC50: > 30000 nM
96 h, YCC-1 cells, 96 h
  IC50: > 30000 nM
96 h, YCC-2 cells, 96 h
  IC50: > 30000 nM
96 h, YCC-6 cells, 96 h
  IC50: 540 nM
96 h, YCC-10, 96 h
  IC50: > 30000 nM
A875, 96 h, A875 cells, 96 h
  IC50: > 30000 nM
A875 cells, 96 h
  % inhibition at top conc.: 10.68%
A2058, 96 h
  % inhibition at top conc.: 29.09%
A2780 cells, 96 h
  % inhibition at top conc.: 69.48%
A2780cis, 96 h, A2780cis cells, 96 h
  IC50: 540 nM
A-204 cells, 96 h
  % inhibition at top conc.: 37.77%
A-375, 96 h
  % inhibition at top conc.: 52.11%
A-431, 96 h
  % inhibition at top conc.: 66.83%
AGS cells, 96 h
  % inhibition at top conc.: 28.18%
AN3 CA, 96 h
  % inhibition at top conc.: 35.67%
AsPC-1 cells, 96 h
  % inhibition at top conc.: 34.71%
C4-2, 96 h
  % inhibition at top conc.: 45.07%
C666-1 cells, 96 h
  % inhibition at top conc.: 36.20%
CADO-ES1, CADO-ES1
  IC50: 210 nM
CAMA-1, 96 h
  % inhibition at top conc.: 54.72%
COLO 205, 96 h
  % inhibition at top conc.: 60.57%
COLO 320DM, 96 h
  % inhibition at top conc.: 72.92%
COV644 cells, 96 h
  % inhibition at top conc.: 31.57%
Calu-3, 96 h
  % inhibition at top conc.: 65.15%
CoC1, 96 h, CoC1/DDP cells, 96 h
  IC50: > 30000 nM
CoC1, 96 h, CoC1 cells, 96 h
  IC50: 1320 nM
DMS 53 cells, 96 h
  % inhibition at top conc.: 85.18%
DOHH-2 cells, 96 h
  % inhibition at top conc.: 99.99%
DU 145, 96 h
  % inhibition at top conc.: 66.37%
EBC-1, 96 h
  % inhibition at top conc.: 42.21%
EFM-192A, 96 h
  % inhibition at top conc.: 49.39%
EFM-192A, 96 h, EFM-192A, 96 h
  IC50: 520 nM
ES-2 cells, 96 h
  % inhibition at top conc.: 44.22%
FaDu, 96 h
  % inhibition at top conc.: 62.82%
GTL-16 cells, 96 h
  % inhibition at top conc.: 54.64%
HBL1, HBL-1
  IC50: 710 nM
HCC827 cells, 96 h
  % inhibition at top conc.: 63.74%
HCC1500, HCC1500
  IC50: > 30000 nM
HCC2218, 96 h
  % inhibition at top conc.: 33.43%
HCC4006, 96 h
  % inhibition at top conc.: 60.70%
HCCC9810, HCCC-9810
  IC50: > 30000 nM
HCCLM3 cells, 96 h
  % inhibition at top conc.: 29.79%
HGC-27 cells, 96 h
  % inhibition at top conc.: 90.57%
HLF, 96 h, HLF cells, 96 h
  IC50: > 30000 nM
HM-7, 96 h
  % inhibition at top conc.: 43.55%
HT-1080, 96 h
  % inhibition at top conc.: 68.42%
Hep G2/C3A, 96 h
  % inhibition at top conc.: 23.83%
HepG2/C3A, 96 h, Hep G2/C3A, 96 h
  IC50: > 30000 nM
Homo sapiens, 22Rv1, 96 h, 22Rv1 cells, 96 h
  IC50: 430 nM
Homo sapiens, 769-P, 96 h, 769-P cells, 96 h
  IC50: 1040 nM
Homo sapiens, 786-0, 96 h, 786-O cells, 96 h
  IC50: 1150 nM
Homo sapiens, 8505C
  IC50: > 30000 nM
Homo sapiens, A 172, 96 h, A-172 cells, 96 h
  IC50: > 30000 nM
Homo sapiens, A204, 96 h, A-204 cells, 96 h
  IC50: > 30000 nM
Homo sapiens, A253, 96 h, A253 cells, 96 h
  IC50: > 30000 nM
Homo sapiens, A498, 96 h, A498 cells, 96 h
  IC50: 860 nM
Homo sapiens, A549, 96 h, A549 cells, 96 h
  IC50: 1040 nM
Homo sapiens, A673, 96 h, A-673 cells, 96 h
  IC50: 680 nM
Homo sapiens, A2058, 96 h
  IC50: > 30000 nM
Homo sapiens, A2780, 96 h, A2780 cells, 96 h
  IC50: 400 nM
Homo sapiens, A-375, 96 h
  IC50: > 30000 nM
Homo sapiens, A-427, 96 h, A-427 cells, 96 h
  IC50: > 30000 nM
Homo sapiens, A-431, 96 h
  IC50: 1150 nM
Homo sapiens, ACHN, 96 h, ACHN cells, 96 h
  IC50: 790 nM
Homo sapiens, AGS, 96 h, AGS cells, 96 h
  IC50: > 30000 nM
Homo sapiens, AMO1, 96 h, AMO-1 cells, 96 h
  IC50: 1480 nM
Homo sapiens, AN3-CA, 96 h, AN3 CA, 96 h
  IC50: > 30000 nM
Homo sapiens, ARH-77, ARH-77
  IC50: > 30000 nM
Homo sapiens, ASPC1, 96 h, AsPC-1 cells, 96 h
  IC50: > 30000 nM
Homo sapiens, AU565, AU565
  IC50: 10100 nM
Homo sapiens, BT-20, 96 h, BT-20 cells, 96 h
  IC50: > 30000 nM
Homo sapiens, BT-474, 96 h, BT474 cells, 96 h
  IC50: > 30000 nM
Homo sapiens, BT-483, BT-483
  IC50: > 30000 nM
Homo sapiens, BT-549, 96 h, BT-549 cells, 96 h
  IC50: 450 nM
Homo sapiens, BXPC-3, BxPC-3
  IC50: 540 nM
Homo sapiens, C6661, 96 h, C666-1 cells, 96 h
  IC50: > 30000 nM
Homo sapiens, C-33-A, 96 h, C-33 A cells, 96 h
  IC50: > 30000 nM
Homo sapiens, CA46, 96 h, CA46 cells, 96 h
  IC50: 600 nM
Homo sapiens, CAKI-2, Caki-2
  IC50: > 30000 nM
Homo sapiens, CAL-27, 96 h, CAL-27 cells, 96 h
  IC50: 3950 nM
Homo sapiens, CAL-51, CAL-51
  IC50: 1680 nM
Homo sapiens, CAL-120, CAL-120
  IC50: > 30000 nM
Homo sapiens, CAMA-1, 96 h
  IC50: 690 nM
Homo sapiens, CAPAN-1, Capan-1
  IC50: > 30000 nM
Homo sapiens, CCRF-CEM
  IC50: 580 nM
Homo sapiens, CFPAC-1, CFPAC-1
  IC50: > 30000 nM
Homo sapiens, COLO 205, 96 h
  IC50: 1140 nM
Homo sapiens, COLO 320DM, 96 h, COLO 320DM, 96 h
  IC50: 490 nM
Homo sapiens, Ca-Ski, 96 h, Ca Ski cells, 96 h
  IC50: > 30000 nM
Homo sapiens, Caco-2, 96 h, Caco-2 cells, 96 h
  IC50: > 30000 nM
Homo sapiens, Calu-1, Calu-1
  IC50: 1040 nM
Homo sapiens, Calu-3, 96 h
  IC50: 1750 nM
Homo sapiens, Calu-6, Calu-6
  IC50: > 30000 nM
Homo sapiens, Caov-3, 96 h, Caov-3 cells, 96 h
  IC50: > 30000 nM
Homo sapiens, Capan-2, Capan-2
  IC50: > 30000 nM
Homo sapiens, DLD-1, DLD-1
  IC50: 420 nM
Homo sapiens, DMS-53, 96 h, DMS 53 cells, 96 h
  IC50: 1070 nM
